Measured values: patent publication US20080221134A1, “8-ALKYNYLXANTHINES AND DERIVATIVES” (priority 2006, published 2008)

Tests used:
[1] = molecular target: T1, A1-adenosine receptor human recombinant (Homo sapiens, UniProt P30542); assay: Radioligand binding assay 1, human recombinant A1 adenosine receptor; conditions: [3H]CCPA
T1 construct: expressed in transfected cells
T1 sequence (P30542 1-326): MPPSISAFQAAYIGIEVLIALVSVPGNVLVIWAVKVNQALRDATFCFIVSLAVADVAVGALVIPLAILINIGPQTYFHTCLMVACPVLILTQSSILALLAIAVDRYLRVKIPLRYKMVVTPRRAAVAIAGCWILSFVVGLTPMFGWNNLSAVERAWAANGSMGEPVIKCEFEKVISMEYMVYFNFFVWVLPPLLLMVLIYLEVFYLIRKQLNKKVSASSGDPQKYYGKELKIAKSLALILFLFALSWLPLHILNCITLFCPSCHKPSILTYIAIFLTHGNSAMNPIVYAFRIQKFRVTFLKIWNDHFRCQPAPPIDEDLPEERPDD
Procedure: (§1) Rat brain preparations were used for A1- and A2A adenosine receptor (AR) and human recombinant cell samples for A1-, A2A- and A3 adenosine receptor radioligand binding studies. Affinity and selectivity was tested in displacement experiments with following radioligands: [^3H]CCPA for A1-adenosine receptors, [^3H]MSX-2 for A2A-receptors and [^3H]PSB-11 for A3-receptors. Results of these experiments are depicted in table 2b (human data) and table 2a (rat data). Radioligand binding test systems are e.g. generally described by Muller et al., Curr. Pharm. Des., 1996, 2, 501 and Weyler et al., ChemMedChem 2006, 1, 891 and references cited therein) These documents are incorporated herein by reference.

[2] = molecular target: T2, A2A-adenosine receptor human recombinant (Homo sapiens, UniProt P29274); assay: Radioligand binding assay 1, human recombinant A2A adenosine receptor; conditions: human recombinant, [3H]MSX-2; read-out: A2A-adenosine receptor human recombinant [3H] MSX-2 Ki
T2 construct: expressed in transfected cells
Procedure: as §1

T2 sequence (P29274 whole entry): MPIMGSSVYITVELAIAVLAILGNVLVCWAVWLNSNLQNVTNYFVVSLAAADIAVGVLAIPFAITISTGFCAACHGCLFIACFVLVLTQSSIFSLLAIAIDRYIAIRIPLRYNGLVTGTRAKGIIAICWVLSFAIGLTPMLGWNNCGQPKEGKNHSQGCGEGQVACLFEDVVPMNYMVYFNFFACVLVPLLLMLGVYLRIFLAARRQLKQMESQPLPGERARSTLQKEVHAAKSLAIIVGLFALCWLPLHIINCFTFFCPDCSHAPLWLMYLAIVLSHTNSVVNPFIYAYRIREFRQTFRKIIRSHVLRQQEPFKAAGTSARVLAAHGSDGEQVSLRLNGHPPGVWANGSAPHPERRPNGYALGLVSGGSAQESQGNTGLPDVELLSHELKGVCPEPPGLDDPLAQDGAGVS

Compound	Ki [1] [nM]	Ki [2] [nM]
C#CCn1c(=O)c2c(nc(C#Cc3cccc(Cl)c3)n2C)n(C)c1=O [drawing 556]	> 10000	423 ± 28
C#CCn1c(=O)c2c(nc(C#Cc3cccc(OC)c3)n2C)n(CC)c1=O [drawing 565]	> 3000	64.8 ± 12
C#CCn1c(=O)c2c(nc(C#Cc3cccc(OC)c3)n2C)n(CCCO)c1=O [drawing 564]	> 3000	5.5 ± 1.4
C#CCn1c(=O)c2c(nc(C#Cc3cccc(OC)c3)n2C)n(CC(O)CO)c1=O (stereo not shown) [drawing 569]	> 3000	175 ± 44
C#CCn1c(=O)c2c(nc(C#Cc3ccc(OC)c(OC)c3)n2C)n(C)c1=O [drawing 554]	> 3000	36.4 ± 0.6
C#CCn1c(=O)c2c(nc(C#Cc3ccc(OC)c(OC)c3)n2C)n(Cc2cccs2)c1=O [drawing 589]	> 1000	416 ± 44
C#CCn1c(=O)c2c(nc(C#Cc3cccc(C)c3)n2C)n(CC)c1=O [drawing 566]	> 3000	89.7 ± 16.1
C#CCn1c(=O)c2c(nc(C#Cc3ccc(OC)c(OC)c3)n2C)n(CC(C)O)c1=O (stereo not shown) [drawing 578]	> 1000	14 ± 4.1
C#CCn1c(=O)c2c(nc(C#Cc3ccc(OC)c(OC)c3)n2C)n(CCN(C)C)c1=O [drawing 568]	> 20000	51.7 ± 8.7
C#CCn1c(=O)[nH]c2nc(C#Cc3ccc(OC)c(OC)c3)n(C)c2c1=O [drawing 563]	> 1000	18.4 ± 3
C#CCn1c(=O)c2c(nc(C#Cc3cccc(OCCOC)c3)n2C)n(C)c1=O [drawing 559]	> 1000	28.9 ± 1.3
C#CCn1c(=O)c2c(nc(C#Cc3ccc(OC)c(OC)c3)n2C)n(CCF)c1=O [drawing 587]	> 1000	30.8 ± 4.9
C#CCn1c(=O)c2c(nc(C#Cc3ccc(OC)c(OC)c3)n2C)n(CCC#N)c1=O [drawing 577]	> 1000	84.3 ± 31
C#CCn1c(=O)c2c(nc(C#Cc3ccc(OC)c(OC)c3)n2C)n(CCOC)c1=O [drawing 574]	> 1000	55.3 ± 4.3
C#CCn1c(=O)c2c(nc(C#Cc3cccc(OCCO)c3)n2C)n(C)c1=O [drawing 557]	> 1000	226 ± 62
C#CCn1c(=O)c2c(nc(C#Cc3cccc(C)c3)n2C)n(C)c1=O [drawing 555]	> 10000	225 ± 52
C#CCn1c(=O)c2c(nc(C#Cc3ccc(OC)c(OC)c3)n2C)n(CC)c1=O [drawing 567]	> 1000	17.7 ± 0.7
C#CCn1c(=O)c2c(nc(C#Cc3ccc(Cl)c(Cl)c3)n2C)n(CC)c1=O [drawing 597]	> 1000	738 ± 146
C#CCn1c(=O)c2c(nc(C#Cc3cccc(OC)c3)n2C)n(C)c1=O [drawing 553]	> 10000	608 ± 111

Results, then the compound that gave them:

Ki [1] [nM]	Ki [2] [nM]	Compound
> 1000	8.4 ± 6.7	C#CCn1c(=O)c2c(nc(C#Cc3ccc(OC)c(OC)c3)n2C)n(Cc2ccoc2)c1=O [drawing 583]
> 1000	100 ± 28	C#CCn1c(=O)c2c(nc(C#Cc3ccc(F)c(OC)c3)n2C)n(CC)c1=O [drawing 588]
> 1000	< 10	C#CCn1c(=O)c2c(nc(C#Cc3cccc(OCc4ccoc4)c3)n2C)n(C)c1=O [drawing 562]
1740 ± 546	11.6 ± 2.1	C#CCn1c(=O)c2c(nc(C#Cc3cccc(OCCCN(C)C)c3)n2C)n(C)c1=O [drawing 558]
> 1000	38.2 ± 8.5	C#CCn1c(=O)c2c(nc(C#Cc3ccc(OC)c(OC)c3)n2C)n(CC(=O)OC)c1=O [drawing 598]
≥ 1000	200 ± 99	C#CCn1c(=O)c2c(nc(C#Cc3ccc(OC)c(OC)c3)n2C)n(CC(C)C)c1=O [drawing 585]
> 1000	36.6 ± 8.7	C#CCn1c(=O)c2c(nc(C#Cc3ccc(OC)c(OC)c3)n2C)n(CCC)c1=O [drawing 584]
> 1000	62.7 ± 10.7	C#CCn1c(=O)c2c(nc(C#Cc3ccc(OC)c(OC)c3)n2C)n(CC(O)CO)c1=O (stereo not shown) [drawing 595]
> 1000	123 ± 62	C#CCn1c(=O)c2c(nc(C#Cc3ccc(OC)c(OC)c3)n2C)n(CCCOC)c1=O [drawing 581]
> 1000	59.8 ± 35.7	C#CCn1c(=O)c2c(nc(C#Cc3ccc(OC)c(OC)c3)n2C)n(CCO)c1=O [drawing 575]
> 1000	58 ± 13.3	C#CCn1c(=O)c2c(nc(C#Cc3ccc(OC)c(OC)c3)n2C)n(CCCC#N)c1=O [drawing 582]
> 1000	103	C#CCn1c(=O)c2c(nc(C#Cc3ccc(OC)c(OC)c3)n2C)n(Cc2cnc[nH]2)c1=O [drawing 593]
> 1000	83.4 ± 26.5	C#CCn1c(=O)c2c(nc(C#Cc3ccc(OCC)c(OCC)c3)n2C)n(CC)c1=O [drawing 573]
> 1000	13.9 ± 0.8	C#CCn1c(=O)c2c(nc(C#Cc3ccc(OC)c(OC)c3)n2C)n(Cc2ccco2)c1=O [drawing 579]
> 1000	90.3 ± 13.7	C#CCn1c(=O)c2c(nc(C#Cc3cccc(OCCN(C)C)c3)n2C)n(C)c1=O [drawing 560]
> 1000	32.2 ± 20.5	C#CCn1c(=O)c2c(nc(C#Cc3ccc(OC)c(OC)c3)n2C)n(CC#N)c1=O [drawing 576]
